Data on one molecule can be found in patent publication US8778919B2, “Cyclic anilino—pyridinotriazines” (Janssen Pharmaceutica NV, priority 2005, dated 2014).

For assay [1], the target named is GSK-3α (Homo sapiens, UniProt P49840). In words: GSK-3 kinase assay (C1), GSK-3α. As to conditions: 1 μM ATP, read-out: C1 Score α. It is filed as biochemical. Put shortly:
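Radiometric SPA at room temperature in 25 mM Tris pH 7.4 with 10 mM MgCl2, 1 mM DTT, 5.7 ng/μl GSK-3β or 0.25 ng/μl GSK-3α, 5 μM biotinylated CREB peptide and 1 μM ATP plus ^33P-ATP. Stopped after 1 h; IC50 from dose-response versus no-compound control, reported as pIC50 score bands.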

Assay [2] has as its system Chang cells. In words: GSK-3 cellular assay (C2): 14C-D-glucose incorporation into glycogen. Format: cell-based. As to conditions: increase in D-glucose incorporation into glycogen, test concentration of 10^−6 M. As for the experimental part:
Test compounds were tested for their ability to increase the incorporation of ^14C-D-glucose into glycogen in living cells. To do this, Chang cells (360,000 cells/well) were cultured in 0.5 ml of MEM Rega 3 medium supplemented with 10% fetal calf serum, 1% L-glutamine and 2% sodium carbonate. After 3 days, cells were washed with 0.5 ml of phosphate-buffered saline and overlayed with 1 ml of serum- and glucose-free DMEM medium. Then, 2 μl of compound in DMSO and 50 μl substrate (3 mM glucose and 0.5 μCi ^14C-D-glucose were added and the cultures were incubated for 90 min. Cells were then extracted with 0.5 ml of 20% KOH for 60 min at 37° C. and the cell lysates were transferred to 10 ml tubes containing 300 μl of 1 mg/ml glycogen as […]. Following the addition of 2 ml ethanol, total glycogen was precipitated overnight at −20° C. and the precipitates were recovered by centrifugation. Precipitates were then resuspended in 1 ml of water and transferred to scintillation counter vials. and the amount of ^14C-D-glucose incorporation into glycogen was measured by scintillation counting. Scores for the compounds according to the invention, were obtained at a test concentration of 10^−6 M. Score 1=10-30% increase, Score 2=30-60% increase, Score 3=60-80% increase and Score 4=>80% increase in D-glucose incorporation.

Assay [3] has as its target T1, Aurora-A (h) (Homo sapiens, UniProt O14965).
T1 sequence (O14965 1-403): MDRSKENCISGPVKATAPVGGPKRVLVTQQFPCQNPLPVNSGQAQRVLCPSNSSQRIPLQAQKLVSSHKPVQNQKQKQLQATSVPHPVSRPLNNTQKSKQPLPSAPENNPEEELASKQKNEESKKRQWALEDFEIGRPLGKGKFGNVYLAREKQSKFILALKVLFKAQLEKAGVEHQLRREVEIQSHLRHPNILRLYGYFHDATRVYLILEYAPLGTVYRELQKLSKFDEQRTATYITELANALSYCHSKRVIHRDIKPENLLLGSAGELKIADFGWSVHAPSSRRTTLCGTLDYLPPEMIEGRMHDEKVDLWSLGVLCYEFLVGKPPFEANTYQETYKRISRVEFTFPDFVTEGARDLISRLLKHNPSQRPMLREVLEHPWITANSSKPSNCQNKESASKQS
In words: Kinase profiling C3.1 Aurora-A human. Format: biochemical. The note with it: test concentration of 10^−6 M. As for the experimental part:
(§1) The in vitro inhibition of a panel of kinases was assessed using either the glass-fiber filter technology as described by Davies, S. P. et al., Biochem J. (2000), 351; p. 95-105. In the glass-fiber filter technology the activity of the kinase of interest is measured using an appropriate substrate that is incubated with the aforementioned kinase protein in the presence of (^33P) radiolabeled ATP. (^33P) Phosporylation of the substrate is subsequently measured as radioactivity bound on a glassfiber-filter.
(§2) All kinases are pre-diluted to a 10× working concentration prior to addition into the assay. The composition of the dilution buffer for each kinase is detailed below.
(§3) All substrates are dissolved and diluted to working stocks in de-ionised water, apart from histone H1 that is stored in 10× working stock in 20 mM MOPS pH 7.4.
(§4) In a final reaction volume of 25 μl, Aurora-A (h) (5-10 mU) is incubated with 8 mM MOPS pH 7.0, 0.2 mM EDTA, 200 μM LRRASLG (Kemptide), 10 mM MgAcetate and [γ-^33P-ATP] (specific activity approx. 500 cpm/pmol, concentration as required). The reaction is initiated by the addition of the MgATP mix. After incubation for 40 minutes at room temperature, the reaction is stopped by the addition of 5 μl of a 3% phosphoric acid solution. 10 μl of the reaction is then spotted onto a P30 filtermat and washed three times for 5 minutes in 50 mM phosphoric acid and once in methanol prior to drying and scintillation counting.

For assay [4], the target named is CDK2/cyclinA (h) (Homo sapiens, UniProt P24941). In words: Kinase profiling C3.3 CDK2/cyclinA human. Format: biochemical. The note with it: test concentration of 10^−6 M. An outline of the steps:
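Human CDK2/cyclinA (5-10 mU) phosphorylates 0.1 mg/ml histone H1 in 8 mM MOPS pH 7.0, EDTA, 10 mM Mg acetate with [γ-33P]ATP, 40 min at room temperature. After phosphoric acid stop, filter-bound 33P counted by scintillation.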

For assay [5], the target named is cSRC (h) (Homo sapiens, UniProt P12931). In words: Kinase profiling C3.9 cSRC human. Format: biochemical. As to conditions: test concentration of 10^−6 M. As for the experimental part: as §1, §2, §3
In a final reaction volume of 25 μl, cSRC (h) (5-10 mU) is incubated with 8 mM MOPS pH 7.0, 0.2 mM EDTA, 250 μM KVEKIGEGTYGVVYK (Cdc2 peptide), 10 mM MgAcetate and [γ-^33P-ATP] (specific activity approx. 500 cpm/pmol, concentration as required). The reaction is initiated by the addition of the MgATP mix. After incubation for 40 minutes at room temperature, the reaction is stopped by the addition of 5 μl of a 3% phosphoric acid solution.
10 μl of the reaction is then spotted onto a P30 filtermat and washed three times for 5 minutes in 75 mM phosphoric acid and once in methanol prior to drying and scintillation counting.

Assay [6] addresses Yes (h) (Homo sapiens, UniProt P07947). In words: Kinase profiling C3.10 Yes human. Format: biochemical. As to conditions: test concentration of 10^−6 M. As for the experimental part: as §1, §2, §3
as §4, with “μl, Yes” for “μl, Aurora-A”, “EDTA, 0.1 mg/ml poly(Glu, Tyr) 4:1,” for “EDTA, 200 μM LRRASLG (Kemptide),”, “a Filtermat A” for “a P30 filtermat”, “in 75” for “in 50”

Chain of GSK-3α (P49840 whole entry, species assumed): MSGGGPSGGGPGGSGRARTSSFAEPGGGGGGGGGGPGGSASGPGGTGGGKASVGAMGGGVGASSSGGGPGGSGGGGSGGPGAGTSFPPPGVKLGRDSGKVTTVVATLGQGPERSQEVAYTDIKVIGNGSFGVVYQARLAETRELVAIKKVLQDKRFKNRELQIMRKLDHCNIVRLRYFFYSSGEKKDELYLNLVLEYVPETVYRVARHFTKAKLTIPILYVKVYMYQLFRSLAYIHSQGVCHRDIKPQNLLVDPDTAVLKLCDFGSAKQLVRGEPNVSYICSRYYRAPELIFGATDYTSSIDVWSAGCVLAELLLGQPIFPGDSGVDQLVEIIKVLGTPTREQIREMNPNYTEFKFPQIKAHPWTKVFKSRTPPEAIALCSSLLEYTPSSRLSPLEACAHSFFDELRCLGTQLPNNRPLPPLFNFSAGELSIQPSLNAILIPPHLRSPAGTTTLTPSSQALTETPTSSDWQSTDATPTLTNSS
Chain of cSRC (h) (P12931 whole entry): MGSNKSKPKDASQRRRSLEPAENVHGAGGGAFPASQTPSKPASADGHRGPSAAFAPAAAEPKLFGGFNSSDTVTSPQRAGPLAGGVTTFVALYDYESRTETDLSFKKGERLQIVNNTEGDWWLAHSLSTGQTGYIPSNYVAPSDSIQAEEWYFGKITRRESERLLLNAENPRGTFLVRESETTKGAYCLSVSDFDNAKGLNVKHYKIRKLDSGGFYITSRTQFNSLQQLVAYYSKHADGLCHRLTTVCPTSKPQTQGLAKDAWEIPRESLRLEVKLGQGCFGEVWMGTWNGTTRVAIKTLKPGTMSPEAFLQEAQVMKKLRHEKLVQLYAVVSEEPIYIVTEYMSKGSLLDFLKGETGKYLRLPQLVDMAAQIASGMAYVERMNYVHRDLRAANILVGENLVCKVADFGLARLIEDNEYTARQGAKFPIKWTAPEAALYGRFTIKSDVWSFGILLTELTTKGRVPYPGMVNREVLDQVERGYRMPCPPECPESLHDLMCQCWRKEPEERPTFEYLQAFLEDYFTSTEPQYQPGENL
Chain of Yes (h) (P07947 whole entry): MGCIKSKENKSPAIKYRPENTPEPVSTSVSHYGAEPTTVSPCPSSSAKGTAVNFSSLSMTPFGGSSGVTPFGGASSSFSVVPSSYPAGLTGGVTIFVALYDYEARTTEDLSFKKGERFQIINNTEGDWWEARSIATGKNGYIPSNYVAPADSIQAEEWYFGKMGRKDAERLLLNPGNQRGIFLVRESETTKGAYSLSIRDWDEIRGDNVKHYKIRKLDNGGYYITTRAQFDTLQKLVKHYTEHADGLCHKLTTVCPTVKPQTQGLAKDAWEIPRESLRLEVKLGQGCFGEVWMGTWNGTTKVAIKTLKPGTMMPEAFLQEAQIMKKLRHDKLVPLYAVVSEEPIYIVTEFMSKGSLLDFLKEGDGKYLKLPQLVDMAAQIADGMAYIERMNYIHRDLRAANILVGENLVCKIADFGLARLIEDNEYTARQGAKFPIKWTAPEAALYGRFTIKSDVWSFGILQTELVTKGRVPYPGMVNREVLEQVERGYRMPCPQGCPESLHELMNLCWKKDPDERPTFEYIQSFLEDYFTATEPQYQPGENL

For the molecule `O=C1CNCc2cccc(c2)Nc2ncnc(n2)-c2cncc(c2)CCCN1` [Compound 83], in assay [1], the IC50 lay within 10 to 100 nM. Besides, in assay [2], the “C2 Score” value is 4 (Score 4=>80% increase in D-glucose incorporation). Moreover, the C3.1 score in assay [3] is given as 2 (Score 2 = 30-60% inhibition). Moreover, the C3.3 score in assay [4] is 2 (Score 2 = 30-60% inhibition). In assay [5], the C3.9 score is 2 (Score 2 = 30-60% inhibition). In assay [6], the C3.10 score is 2 (Score 2 = 30-60% inhibition).
